One experiment addresses T1, human cathepsin S (Homo sapiens, UniProt P25774).
T1 construct: purchased Calbiochem
The experiment can be described thus: human cathepsin S enzyme inhibitor assay. Type of experiment: biochemical. As for the experimental part: (§1) Potency assays for human cathepsin S and mouse cathepsin S and selectivity assays for human cathepsins L, B, K, V, and F are described below. The experimental conditions and/or materials of each assay differ slightly and therefore such differences are noted either directly within the general assay conditions or coded according to the respective enzyme assay using designations 1a through 1 g in Table 1 immediately following the general assay conditions.
(§2) Test compounds are prepared in DMSO to make up a 10 mM stock solution. The stock solution is serially diluted in DMSO to obtain a ten-point dilution curve with a final compound concentration range 1a in a 96-well round-bottom plate before conducting the in vitro enzymatic assay.
(§3) Amount 1c of substrate, benzyloxycarbonyl-L-leucyl-L-arginine-4-methyl-coumaryl-7-amide (Peptide Institute), prepared in assay buffer, is added to each well of the plate for a final concentration 1d. Amount 1e of the respective enzyme, described immediately hereafter, prepared in assay buffer is added to each well of the plate containing substrate and test compound resulting in a final concentration 1f to initiate the reaction. • Human cathepsins S, L, K, and V: Obtained from Calbiochem. • Mouse cathepsin S: Briefly, mouse cathepsin S is cloned in baculovirus using a mCathepsin S-pAN51(T760) construct containing a histidine tag. […]

A further experiment addresses T2, mouse cathepsin S (Mus musculus, UniProt O70370).
T2 construct: histidine tag; made in house
The experiment can be described thus: mouse cathepsin S enzyme inhibitor assay. Type of experiment: biochemical. As for the experimental part:
as §1, §2, §3

The next experiment deals with T3, human cathepsin L (Homo sapiens, UniProt P07711).
T3 construct: purchased Calbiochem
T3 sequence (P07711 114-333): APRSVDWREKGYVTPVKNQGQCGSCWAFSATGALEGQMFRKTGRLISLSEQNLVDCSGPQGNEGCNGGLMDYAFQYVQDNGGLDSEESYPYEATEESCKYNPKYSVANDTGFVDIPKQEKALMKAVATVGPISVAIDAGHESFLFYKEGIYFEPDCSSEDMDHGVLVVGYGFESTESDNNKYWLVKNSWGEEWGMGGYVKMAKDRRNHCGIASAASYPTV
The experiment can be described thus: human cathepsin L enzyme inhibitor (selectivity) assay. It counts as biochemical. As for the experimental part: as §1, §2, §3

The target of the next experiment is human cathepsin B (Homo sapiens, UniProt P07858). The experiment can be described thus: human cathepsin B enzyme inhibitor (selectivity) assay. Type of experiment: biochemical. As for the experimental part: as §1, §2, §3
The next experiment concerns the target T4, human cathepsin K (Homo sapiens, UniProt P43235).
T4 construct: purchased Calbiochem
T4 sequence (P43235 115-329): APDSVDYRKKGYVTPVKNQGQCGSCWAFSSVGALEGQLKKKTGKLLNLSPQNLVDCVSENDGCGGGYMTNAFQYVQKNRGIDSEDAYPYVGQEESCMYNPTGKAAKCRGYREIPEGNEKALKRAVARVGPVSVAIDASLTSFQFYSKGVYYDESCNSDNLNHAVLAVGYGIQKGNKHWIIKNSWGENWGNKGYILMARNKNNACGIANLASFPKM
The experiment can be described thus: human cathepsin K enzyme inhibitor (selectivity) assay. It counts as biochemical. As for the experimental part:
as §1, §2, §3

The target of the next experiment is T5, human cathepsin V (Homo sapiens, UniProt O60911).
T5 construct: purchased Calbiochem
T5 sequence (O60911 114-334): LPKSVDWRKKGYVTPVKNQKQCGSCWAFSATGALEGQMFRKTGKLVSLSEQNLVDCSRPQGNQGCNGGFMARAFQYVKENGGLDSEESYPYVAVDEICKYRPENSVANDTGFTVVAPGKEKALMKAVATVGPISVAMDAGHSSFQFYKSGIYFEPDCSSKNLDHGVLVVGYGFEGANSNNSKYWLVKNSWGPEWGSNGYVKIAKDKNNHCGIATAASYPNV
The experiment can be described thus: human cathepsin V enzyme inhibitor (selectivity) assay. It counts as biochemical. How it is done:
as §1, §2, §3

The test system of experiment [1] is CaCl2-induced AAA (aortic luminal perimeter). The experiment can be described thus: CaCl2-induced AAA Animal Efficacy Model. It counts as in vivo, mouse. Particulars: for In Vivo Percentage (%) Reduction of AAA: 129SvEv mice, aortic luminal perimeter by ultrasound, mean ± SD. As for the experimental part: The first dose is given one day prior to surgery (p.m.) and the second dose is given the morning of surgery. […] B.i.d. dosing (a.m. and p.m.) is continued the day after surgery for 28 days. On the day of surgery, animals received analgesia ([…]®, 0.1 mg/kg) subcutaneously 10 min. pre-operatively and 3 hr. post-operatively. Mice are anesthetized by inhalation of 2% isoflurane and a laparotomy is performed. The abdominal aorta is exposed by retracting the bowel laterally with a surgical retractor and leaving the bowel in the abdominal cavity. […] Once isolated, the region of interest of the abdominal aorta is wrapped with a premeasured sterile cotton gauze soaked in 0.25 M aqueous CaCl2 solution. In sham control animals, 0.9% saline is substituted for CaCl2. After 7 min., the gauze is removed and a second CaCl2 soaked gauze (or 0.9% saline soaked gauze in sham animals) is applied. Following a second 7 minute period, the gauze is removed, the aorta is rinsed with 0.9% saline and the abdomen is closed. […] After 4 weeks of dosing as described above, the aortic luminal perimeter, area and diameter of the aortic segments that were wrapped with gauze are determined by ultrasound (Biosound Ultrasound-7.5 MHz) and statistically analyzed with JMP® 7 software (Cary, N.C.).

A further experiment deals with p10 in PWBC. The experiment can be described thus: p10 Accumulation Assay. Type of experiment: in vivo, mouse. The following applies: 4 hr.; for In vivo relative p10 accumulation in PWBC: mice, relative to vehicle, normalized with tubulin, mean ± SD. As for the experimental part: After 4 hr., whole blood (300-500 μL) is drawn from each mouse. The step of removing red blood cells is performed by adding one mL Flow Cytometry Lysing Solution™ (Santa Cruz Biotechnology, Inc.), keeping at room temperature for 10 min., centrifuging at 4000 rpm for 5 min. and then discarding the supernatant. This step is repeated once to remove the red blood cells completely. The PWBC pellet is resuspended with 50 μL CytoBuster™ Reagent (Novagen) and sonicated at high power for 5-10 sec.
The p10 amount is determined using a Western blot. […] Gels are run at 120 V for 60 min. with the NUPAGE® MES SDS running buffer (Invitrogen). Proteins are transferred to 0.2 μm nitrocellulose (BIO-RAD) at 100 V for 30 min. with NUPAGE® Transfer Buffer (Invitrogen) and 20% methanol (EMD). Blot is briefly rinsed with PBS and blocked in 10 mL in ODYSSEY® Blocking Buffer (LI-COR Biosciences) at room temperature for 60 min. For p10, the blot is incubated with primary antibody against mouse CD74 (1 μg/ml of rat anti-CD74 antibody)(BD Bioscience) in blocking buffer at 4° C. overnight. For tubulin control, the blot is incubated with rabbit anti-beta tubulin pAb (0.2 μg/ml)(Abcam) in blocking buffer at 4° C. overnight. The blot is washed with washing buffer (DPBS from HyClone) with 0.01% polysorbate 20 four times for 10 min. each. The blot is then incubated with secondary antibody at room temperature for 60 min. For p10, ALEXA FLUOR® 680 goat anti rat IgG (1:5000 dilution)(Invitrogen) is used. For tubulin, ALEXA FLUOR® 680 goat anti rabbit IgG (1:5000 dilution)(Invitrogen). The blot is again washed as described above and placed in PBS for scanning.
The images are captured by scanning on an ODYSSEY® Infrared Imager (LI-COR Biosciences). The p10 amount is analyzed with ODYSSEY® software and normalized with the tubulin amount. The data are statistically analyzed with JMP® 7 software (Cary, N.C.). Values are represented as means±standard deviation.

Molecules are shown by their SMILES.

The values below come from patent US8227468B2, “Cathepsin S inhibitor compounds” (Eli Lilly and Company, priority 2010, dated 2012).

T1 sequence (P25774 115-331): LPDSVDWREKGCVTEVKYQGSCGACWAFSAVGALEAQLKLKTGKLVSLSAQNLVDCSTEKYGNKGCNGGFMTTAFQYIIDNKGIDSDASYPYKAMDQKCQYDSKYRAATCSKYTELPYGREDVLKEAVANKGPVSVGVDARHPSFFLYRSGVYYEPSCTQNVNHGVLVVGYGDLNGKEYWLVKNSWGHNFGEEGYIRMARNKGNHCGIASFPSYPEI

What is called IC50 is the concentration that gives 50% inhibition. Read a low IC50 as greater potency in that assay. `CNC(=O)O[C@H]1CCc2ccc(N3CCN(C4COC4)CC3)cc2[C@@H]1NC(=O)c1ccc(F)cc1` [Example 2, [(1S,2S)-1-[(4-Fluorobenzoyl)amino]-7-[4-(oxetan-3-yl)piperazin-1-yl]tetralin-2-yl] N-methylcarbamate]: the IC50 against human cathepsin S was approximately 0.0102 µM; at mouse cathepsin S, approximately 0.0039 µM; against human cathepsin L, more than 167 µM; against human cathepsin B it was approximately 94 µM; at human cathepsin K it was more than 100 µM; at human cathepsin V, more than 100 µM. Moreover, the “In Vivo Percentage (%) Reduction of AAA” value in experiment [1] (1 mg/kg oral gavage b.i.d. 4 weeks) is given as 11 ± 7%; in experiment [1] (3 mg/kg oral gavage b.i.d. 4 weeks), 32 ± 9%; in experiment [1] (10 mg/kg oral gavage b.i.d. 4 weeks) it was 43 ± 9%; in experiment [1] (30 mg/kg oral gavage b.i.d. 4 weeks), 52 ± 7%. Also, in experiment [1] (1-30 mg/kg oral b.i.d. 4 weeks), the “effect on aortic luminal perimeter (in words)” value was “reduce the aortic luminal perimeter in a dose-dependent manner”. Moreover, the “In vivo relative p10 accumulation in PWBC” value in the experiment on p10 in PWBC (3 mg/kg oral gavage) was determined as 1.1 ± 0.7 fold increase; with p10 in PWBC (10 mg/kg oral gavage), 2.2 ± 1.3 fold increase; in the experiment on p10 in PWBC (30 mg/kg oral gavage) it was 4.6 ± 1.2 fold increase. Moreover, the “effect on p10 in PWBC (in words)” value with p10 in PWBC (3-30 mg/kg oral) was “dose dependently increase p10 in PWBC”.
